Assay results as given in patent US20240158446A1, “CYCLIC COMPOUND HAVING SELECTIVE INHIBITORY ACTION ON KRAS OVER HRAS AND NRAS” (CHUGAI SEIYAKU KABUSHIKI KAISHA, priority 2021, published 2024).

Experiments:
[1] = system: human lung cancer strain NCI-H441;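 note: cell proliferation inhibition after four days measured by CellTiter-Glo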
[2] = molecular target: GDP-bound KRAS wild-type protein (Homo sapiens, UniProt P01116); assay: Binding to KRAS by surface plasmon resonance (SPR), Single Cycle Kinetics; conditions: SPR, Single Cycle Kinetics, 1:1 binding model; GDP-bound KRAS wild-type protein; read-out: KRAS KD
GDP-bound KRAS wild-type protein, sequence (P01116 whole entry): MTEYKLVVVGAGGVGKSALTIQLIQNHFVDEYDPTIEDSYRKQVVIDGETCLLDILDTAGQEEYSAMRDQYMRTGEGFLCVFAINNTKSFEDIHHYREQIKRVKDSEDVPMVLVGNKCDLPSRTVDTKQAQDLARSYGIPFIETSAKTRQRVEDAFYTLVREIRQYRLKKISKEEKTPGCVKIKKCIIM

[3] = molecular target: GDP-bound HRAS wild-type protein (Homo sapiens, UniProt P01112); assay: Binding to HRAS by surface plasmon resonance (SPR), Single Cycle Kinetics; conditions: SPR; GDP-bound HRAS wild-type protein vs GDP-bound KRAS wild-type protein; KD ratio class
GDP-bound HRAS wild-type protein, sequence (P01112 whole entry): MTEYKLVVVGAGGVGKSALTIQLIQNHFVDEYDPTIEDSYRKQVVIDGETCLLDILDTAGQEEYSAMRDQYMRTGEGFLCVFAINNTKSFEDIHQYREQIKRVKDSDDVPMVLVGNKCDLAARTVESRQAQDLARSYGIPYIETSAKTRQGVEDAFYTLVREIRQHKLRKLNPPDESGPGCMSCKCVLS

[4] = molecular target: GDP-bound NRAS wild-type protein (Homo sapiens, UniProt P01111); assay: Binding to NRAS by surface plasmon resonance (SPR), Single Cycle Kinetics; conditions: SPR; GDP-bound NRAS wild-type protein vs GDP-bound KRAS wild-type protein; KD ratio class
GDP-bound NRAS wild-type protein, sequence (P01111 whole entry): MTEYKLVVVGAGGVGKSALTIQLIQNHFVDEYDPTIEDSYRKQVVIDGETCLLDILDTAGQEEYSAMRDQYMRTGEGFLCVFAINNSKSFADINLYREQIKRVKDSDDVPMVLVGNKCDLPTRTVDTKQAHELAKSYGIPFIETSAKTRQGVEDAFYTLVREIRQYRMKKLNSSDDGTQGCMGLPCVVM

| IC50 [1] | Kd [2] | Compound | HRAS/KRAS (ratio of KD value for HRAS to KD value for KRAS) [3] | NRAS/KRAS (ratio of KD value for NRAS to KD value for KRAS) [4] |
| --- | --- | --- | --- | --- |
| 54.8 nM | 0.12 nM | CCO[C@@H]1C[C@H]2C(=O)NC3(CCC3)C(=O)N(C)[C@@H](C3CCCC3)C(=O)N(C)[C@H](C(=O)N3CCOCC3)CC(=O)N(C)[C@@H](C)C(=O)N[C@@H]([C@@H](C)CC)C(=O)N(C)CC(=O)N(C)[C@H]3C/C=C\CCN(C3=O)[C@@H](Cc3ccc(C(F)(F)F)cc3)C(=O)N(C)CC(=O)N[C@@H](CCc3cc(F)c(C(F)(F)F)c(F)c3)C(=O)N2C1 [PP1284] | A (a compound having 10 or more and less than 20 is denoted as A) | AA (a compound having 20 or more is denoted as AA) |
| 24.6 nM | 0.15 nM | CCO[C@@H]1C[C@H]2C(=O)NC3(CCC3)C(=O)N(C)[C@@H](C3CCCC3)C(=O)N(C)[C@H](C(=O)N3CCOCC3)CC(=O)N(C)[C@@H](CC(F)F)C(=O)N[C@@H]([C@@H](C)CC)C(=O)N(C)CC(=O)N(C)[C@H]3C/C=C\CCN(C3=O)[C@@H](Cc3ccc(C(F)(F)F)cc3)C(=O)N(C)CC(=O)N[C@@H](CCc3cc(F)c(C(F)(F)F)c(F)c3)C(=O)N2C1 [PP1285] | A (a compound having 10 or more and less than 20 is denoted as A) | AA (a compound having 20 or more is denoted as AA) |
| 58.8 nM | 0.65 nM | CCO[C@@H]1C[C@H]2C(=O)NC3(CCC3)C(=O)N(C)[C@@H](C(CC)CC)C(=O)N(C)[C@H](C(=O)N3CCOCC3)CC(=O)N(C)[C@@H](CC)C(=O)N[C@@H]([C@@H](C)CC)C(=O)N(C)CC(=O)N(C)[C@H]3C/C=C\CCN(C3=O)[C@@H](Cc3ccc(C(F)(F)F)cc3)C(=O)N(C)CC(=O)N[C@@H](CCc3cc(F)c(C(F)(F)F)c(F)c3)C(=O)N2C1 [PP1286] | A (a compound having 10 or more and less than 20 is denoted as A) | AA (a compound having 20 or more is denoted as AA) |
| 49.7 nM | 0.56 nM | CCO[C@@H]1C[C@H]2C(=O)NC3(CCC3)C(=O)N(C)[C@@H](C(CC)CC)C(=O)N(C)[C@H](C(=O)N3CCOCC3)CC(=O)N(C)[C@@H](CC(C)C)C(=O)N[C@@H]([C@@H](C)CC)C(=O)N(C)CC(=O)N(C)[C@H]3C/C=C\CCN(C3=O)[C@@H](Cc3ccc(C(F)(F)F)cc3)C(=O)N(C)CC(=O)N[C@@H](CCc3cc(F)c(C(F)(F)F)c(F)c3)C(=O)N2C1 [PP1287] | A (a compound having 10 or more and less than 20 is denoted as A) | AA (a compound having 20 or more is denoted as AA) |
| 22.2 nM | 0.18 nM | CCC[C@H]1C(=O)N[C@@H]([C@@H](C)CC)C(=O)N(C)CC(=O)N(C)[C@H]2C/C=C\CCN(C2=O)[C@@H](Cc2ccc(C(F)(F)F)cc2)C(=O)N(C)CC(=O)N[C@@H](CCc2cc(F)c(C(F)(F)F)c(F)c2)C(=O)N2C[C@H](OCC)C[C@H]2C(=O)NC2(CCC2)C(=O)N(C)[C@@H](C2CCCC2)C(=O)N(C)[C@H](C(=O)N2CCOCC2)CC(=O)N1C [PP1288] | A (a compound having 10 or more and less than 20 is denoted as A) | AA (a compound having 20 or more is denoted as AA) |
| 6.2 nM | 0.12 nM | CCO[C@@H]1C[C@H]2C(=O)NC3(CCC3)C(=O)N(C)[C@@H](C3CCCC3)C(=O)N(C)[C@H](C(=O)N3CCCC3)CC(=O)N(C)[C@@H](CC(C)C)C(=O)N[C@@H]([C@@H](C)CC)C(=O)N(C)CC(=O)N(C)[C@H]3C/C=C\CCN(C3=O)[C@@H](Cc3ccc(C(F)(F)F)cc3)C(=O)N(C)CC(=O)N[C@@H](CCc3cc(F)c(C(F)(F)F)c(F)c3)C(=O)N2C1 [PP1295, (2S,8S,12R,14S,20S,23S,27S,30S,36S,38Z)-20-cyclopentyl-8-[2-[3,5-difluoro-4-(trifluoromethyl)phenyl]ethyl]-12-ethoxy-27-isobutyl-4,19,22,26,32,35-hexamethyl-30-[(1S)-1-methylpropyl]-23-(pyrrolidine-1-carbonyl)-2-[[4-(trifluoromethyl)phenyl]methyl]spiro[1,4,7,10,16,19,22,26,29,32,35-undecazatricyclo[34.5.1.0^10,14]dotetracont-38-ene-17,1′-cyclobutane]-3,6,9,15,18,21,25,28,31,34,42-undecone] | A (a compound having 10 or more and less than 20 is denoted as A) | AA (a compound having 20 or more is denoted as AA) |

The next lines start with the molecule.

| Compound | IC50 [1] | Kd [2] | HRAS/KRAS (ratio of KD value for HRAS to KD value for KRAS) [3] | NRAS/KRAS (ratio of KD value for NRAS to KD value for KRAS) [4] |
| --- | --- | --- | --- | --- |
| CCO[C@@H]1C[C@H]2C(=O)NC3(CCC3)C(=O)N(C)[C@@H](C3CCCC3)C(=O)N(C)[C@H](C(=O)N3CCCCC3)CC(=O)N(C)[C@@H](CC)C(=O)N[C@@H]([C@@H](C)CC)C(=O)N(C)CC(=O)N(C)[C@H]3C/C=C\CCN(C3=O)[C@@H](Cc3ccc(C(F)(F)F)cc3)C(=O)N(C)CC(=O)N[C@@H](CCc3cc(F)c(C(F)(F)F)c(F)c3)C(=O)N2C1 [PP1289] | 34.7 nM | 0.17 nM | A (a compound having 10 or more and less than 20 is denoted as A) | AA (a compound having 20 or more is denoted as AA) |
| CCO[C@@H]1C[C@H]2C(=O)NC3(CCC3)C(=O)N(C)[C@@H](C3CCCC3)C(=O)N(C)[C@H](C(=O)N3CCCCC3)CC(=O)N(C)[C@@H](CC(C)C)C(=O)N[C@@H]([C@@H](C)CC)C(=O)N(C)CC(=O)N(C)[C@H]3C/C=C\CCN(C3=O)[C@@H](Cc3ccc(C(F)(F)F)cc3)C(=O)N(C)CC(=O)N[C@@H](CCc3cc(F)c(C(F)(F)F)c(F)c3)C(=O)N2C1 [PP1290] | 15.4 nM | 0.24 nM | A (a compound having 10 or more and less than 20 is denoted as A) | AA (a compound having 20 or more is denoted as AA) |
| CCO[C@@H]1C[C@H]2C(=O)NC3(CCC3)C(=O)N(C)[C@@H](C3CCCC3)C(=O)N(C)[C@H](C(=O)N3CCCCC3)CC(=O)N(C)[C@@H](CC3CC3)C(=O)N[C@@H]([C@@H](C)CC)C(=O)N(C)CC(=O)N(C)[C@H]3C/C=C\CCN(C3=O)[C@@H](Cc3ccc(C(F)(F)F)cc3)C(=O)N(C)CC(=O)N[C@@H](CCc3cc(F)c(C(F)(F)F)c(F)c3)C(=O)N2C1 [PP1291] | 16.7 nM | 0.24 nM | A (a compound having 10 or more and less than 20 is denoted as A) | A (a compound having 10 or more and less than 20 is denoted as A) |
| CCO[C@@H]1C[C@H]2C(=O)NC3(CCC3)C(=O)N(C)[C@@H](C3CCCC3)C(=O)N(C)[C@H](C(=O)N3CCCCC3)CC(=O)N(C)[C@@H](C)C(=O)N[C@@H]([C@@H](C)CC)C(=O)N(C)CC(=O)N(C)[C@H]3C/C=C\CCN(C3=O)[C@@H](Cc3ccc(C(F)(F)F)cc3)C(=O)N(C)CC(=O)N[C@@H](CCc3cc(F)c(C(F)(F)F)c(F)c3)C(=O)N2C1 [PP1292] | 24.6 nM | 0.16 nM | A (a compound having 10 or more and less than 20 is denoted as A) | A (a compound having 10 or more and less than 20 is denoted as A) |
| CCC[C@H]1C(=O)N[C@@H]([C@@H](C)CC)C(=O)N(C)CC(=O)N(C)[C@H]2C/C=C\CCN(C2=O)[C@@H](Cc2ccc(C(F)(F)F)cc2)C(=O)N(C)CC(=O)N[C@@H](CCc2cc(F)c(C(F)(F)F)c(F)c2)C(=O)N2C[C@H](OCC)C[C@H]2C(=O)NC2(CCC2)C(=O)N(C)[C@@H](C2CCCC2)C(=O)N(C)[C@H](C(=O)N2CCCCC2)CC(=O)N1C [PP1294] | 10 nM | 0.29 nM | A (a compound having 10 or more and less than 20 is denoted as A) | A (a compound having 10 or more and less than 20 is denoted as A) |
| CCO[C@@H]1C[C@H]2C(=O)NC3(CCC3)C(=O)N(C)[C@@H](C3CCCC3)C(=O)N(C)[C@H](C(=O)N3CCCC3)CC(=O)N(C)[C@@H](CC3CC3)C(=O)N[C@@H]([C@@H](C)CC)C(=O)N(C)CC(=O)N(C)[C@H]3C/C=C\CCN(C3=O)[C@@H](Cc3ccc(C(F)(F)F)cc3)C(=O)N(C)CC(=O)N[C@@H](CCc3cc(F)c(C(F)(F)F)c(F)c3)C(=O)N2C1 [PP1296] | 14.7 nM | 0.12 nM | A (a compound having 10 or more and less than 20 is denoted as A) | AA (a compound having 20 or more is denoted as AA) |
| CCO[C@@H]1C[C@H]2C(=O)NC3(CCC3)C(=O)N(C)[C@@H](C3CCCC3)C(=O)N(C)[C@H](C(=O)N3CCCC3)CC(=O)N(C)[C@@H](C)C(=O)N[C@@H]([C@@H](C)CC)C(=O)N(C)CC(=O)N(C)[C@H]3C/C=C\CCN(C3=O)[C@@H](Cc3ccc(C(F)(F)F)cc3)C(=O)N(C)CC(=O)N[C@@H](CCc3cc(F)c(C(F)(F)F)c(F)c3)C(=O)N2C1 [PP1297, (2S,8S,12R,14S,20S,23S,27S,30S,36S,38Z)-20-cyclopentyl-8-[2-[3,5-difluoro-4-(trifluoromethyl)phenyl]ethyl]-12-ethoxy-4,19,22,26,27,32,35-heptamethyl-30-[(1S)-1-methylpropyl]-23-(pyrrolidine-1-carbonyl)-2-[[4-(trifluoromethyl)phenyl]methyl]spiro[1,4,7,10,16,19,22,26,29,32,35-undecazatricyclo[34.5.1.0^10,14]dotetracont-38-ene-17,1′-cyclobutane]-3,6,9,15,18,21,25,28,31,34,42-undecone] | 23.1 nM | 0.087 nM | A (a compound having 10 or more and less than 20 is denoted as A) | AA (a compound having 20 or more is denoted as AA) |
